Laboratory results as given in publication PMC7435819, “Towards the Inhibition of Protein–Protein Interactions (PPIs) in STAT3: Insights into a New Class of Benzothiadiazole Derivatives” (Molecules, 2020).
Like-named read-outs stand apart in the source and are kept apart here.

Columns and labels:
STAT3 Cys712A = target: T1, STAT3 Cys712A (Homo sapiens, UniProt P40763, C712A); assay: AlphaScreen-based assay, STAT3 single-cysteine mutant Cys712A; assay type: binding; details: for % of control, STAT3 AlphaScreen: Cys712A
T1 construct: made in house
Method: (§1) Furthermore, to gain insight into the activity of compound 1, its interaction with the cysteine residues located in the vicinities of the SH2 domain (Figure 3) was investigated and evaluated by an AlphaScreen-based assay using different mutants (Table 3).
(§2) The same procedure was used to evaluate compound 1 activity versus STAT3 single-cysteine-residue mutants (Cys468A, Cys542A, Cys550A, Cys687A, and Cys712A). Briefly, 3 µL of compound 1 in DMSO (at 0.3, 1, 3, 10 and 30 µM concentration) were premixed with 1 µL of L-Cys in PBS and 16 µL of an AlphaScreen buffer. Then, the mixture was immediately (<5 min) mixed with the STAT3 mutant solution before adding the FITC-peptide.

STAT3 Cys550A = target: T2, STAT3 Cys550A (Homo sapiens, UniProt P40763, C550A); assay: AlphaScreen-based assay, STAT3 single-cysteine mutant Cys550A; assay type: binding; details: for % of control, STAT3 AlphaScreen: Cys550A
T2 construct: a truncated form of STAT3 (136-705) was constructed and chromatographically purified; made in house
Method: as §1, §2

[1] = set-up: method as in doi:10.1039/P29840001851; details: cited from earlier work
STAT3 Cys687A = target: T3, STAT3 Cys687A (Homo sapiens, UniProt P40763, C687A); assay: AlphaScreen-based assay, STAT3 single-cysteine mutant Cys687A; assay type: binding; details: for % of control, STAT3 AlphaScreen: Cys687A
T3 construct: a truncated form of STAT3 (136-705) was constructed and chromatographically purified; made in house
Method: as §1, §2

STAT3 = target: T4, STAT3 (Homo sapiens, UniProt P40763); assay: AlphaScreen-based competitive binding assay, STAT3 SH2 domain vs FITC-GpYLPQTV; details: for % of control, STAT3 AlphaScreen: WT
T4 construct: a truncated form of STAT3 (136-705) was constructed and chromatographically purified; made in house
Excerpt: (§3) AlphaScreen is an in vitro competitive binding test used to identify compounds that are able to inhibit the binding of proteins containing an SH2 domain to their corresponding phosphopeptides (5-carboxyfluorescein (FITC)-GpYLPQTV for STAT3 and FITC-GpYDKPHVL for STAT1) (Table 2).
(§4) AlphaScreen is a bead-based non-radioactive assay system for the detection of biomolecular interactions in a microtiter plate format. The binding of biological partners brings donor and acceptor beads into close proximity and, as a result, a fluorescent signal between 520 and 620 nm was produced. The AlphaScreen-based assays were performed in a final reaction volume of 25 μL of the assay buffer containing 10 mM HEPES–NaOH (pH 7.4), 50 mM NaCl, 1 mM EDTA (pH 8.0), 0.1% NP-40, and 10 ng/μL bovine serum albumin (BSA) in a 96-well microtiter plate at 25 °C. The pTyr peptide probes used in this study were 5-carboxyfluorescein (FITC)-GpYLPQTV for STAT3 and (FITC)-GpYDKPHVL for STAT1. Plasmid construction and protein expression were performed as previously described; the experimental method is briefly summarized as follows. Considering that the expression of the full-length protein is troublesome, a truncated form of STAT3 (136-705) was constructed and chromatographically purified (AKTA FPLC system; GE Healthcare Bio-Sciences, Piscataway, NJ, USA). The soluble STAT3 fraction was loaded on a HisTrap™ column (GE Healthcare Bio-Sciences) and eluted with an imidazole gradient (50 mM Tris–HCl pH 7.4, 300 mM NaCl, 0.2 mM EDTA, 0.1% (w/v) NP-40, 5 mM β-mercaptoethanol, 10% (v/v) glycerol, and 10–300 mM imidazole). An SDS-PAGE stained with Coomassie Brilliant Blue (CBB) was performed to check the purity of the protein (see Figure S71). Subsequently, the protein was dialyzed (10 mM HEPES-NaOH pH 7.4, 50 mM NaCl, 10 mM β-mercaptoethanol, 0.1 mM EGTA, 0.02% (w/v) NP-40, 0.2 mM phenylmethylsulphonyl fluoride (PMSF), and 10% (v/v) glycerol).
(§5) Firstly, 75 nM of each SH2-containing protein were incubated with the test compound (at the following concentrations: 1, 3, 10, and 30 µM) for 15 min. Each protein sample was then incubated for 90 min with 50 nM of its corresponding FITC-pTyr peptide and simultaneously mixed with streptavidin-coated donor beads and anti-FITC acceptor beads before detection at 570 nm using EnVison Xcite (PerkinElmer, Waltham, MA, USA).

Grb2 = Grb2 (Homo sapiens, UniProt P62993); assay: AlphaScreen-based assay, Grb2 (other SH2 domain-containing protein); assay type: binding; details: 30 µM
Method: as §3, §5

STAT3 Cys468A = target: T5, STAT3 Cys468A (Homo sapiens, UniProt P40763, C468A); assay: AlphaScreen-based assay, STAT3 single-cysteine mutant Cys468A; assay type: binding; details: for % of control, STAT3 AlphaScreen: Cys468A
T5 construct: a truncated form of STAT3 (136-705) was constructed and chromatographically purified; made in house
Method: as §1, §2

STAT3 Cys542A = target: T6, STAT3 Cys542A (Homo sapiens, UniProt P40763, C542A); assay: AlphaScreen-based assay, STAT3 single-cysteine mutant Cys542A; assay type: binding; details: for % of control, STAT3 AlphaScreen: Cys542A
T6 construct: a truncated form of STAT3 (136-705) was constructed and chromatographically purified; made in house
Method: as §1, §2

STAT1 = target: T7, STAT1 (Homo sapiens, UniProt P42224); assay: AlphaScreen-based competitive binding assay, STAT1 vs FITC-GpYDKPHVL; details: read-out: STAT1 inhibition: IC50
T7 sequence (P42224 1-750): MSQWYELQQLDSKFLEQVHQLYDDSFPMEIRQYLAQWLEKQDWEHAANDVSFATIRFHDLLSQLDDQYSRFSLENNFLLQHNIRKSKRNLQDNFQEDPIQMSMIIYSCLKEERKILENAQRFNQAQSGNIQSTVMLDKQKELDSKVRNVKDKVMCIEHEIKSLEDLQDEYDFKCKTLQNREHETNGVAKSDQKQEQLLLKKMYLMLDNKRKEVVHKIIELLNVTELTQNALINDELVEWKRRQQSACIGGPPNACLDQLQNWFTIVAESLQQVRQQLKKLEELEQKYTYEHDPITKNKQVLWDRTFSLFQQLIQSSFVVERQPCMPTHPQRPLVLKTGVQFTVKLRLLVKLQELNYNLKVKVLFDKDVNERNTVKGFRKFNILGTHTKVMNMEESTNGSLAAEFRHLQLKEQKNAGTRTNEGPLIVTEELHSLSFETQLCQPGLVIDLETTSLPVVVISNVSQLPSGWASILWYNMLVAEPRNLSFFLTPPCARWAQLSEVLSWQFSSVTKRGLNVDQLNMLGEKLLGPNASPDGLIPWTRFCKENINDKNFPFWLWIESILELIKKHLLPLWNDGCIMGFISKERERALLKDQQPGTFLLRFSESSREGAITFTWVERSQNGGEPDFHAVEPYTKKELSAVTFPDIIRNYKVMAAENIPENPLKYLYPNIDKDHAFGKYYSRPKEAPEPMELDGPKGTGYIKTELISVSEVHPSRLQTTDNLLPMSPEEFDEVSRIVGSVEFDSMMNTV
Excerpt: as §3
as §4, with “The soluble STAT3 fraction was loaded on a HisTrap™ column (GE Healthcare Bio-Sciences) and eluted with an imidazole gradient (50 mM Tris–HCl pH 7.4, 300 mM NaCl, 0.2 mM EDTA, 0.1% (w/v) NP-40, 5 mM β-mercaptoethanol, 10% (v/v) glycerol, and 10–300 mM imidazole). An SDS-PAGE stained with Coomassie Brilliant Blue (CBB) was performed to check the purity of the protein (see Figure S71). Subsequently, the protein was dialyzed (10 mM HEPES-NaOH pH 7.4, 50 mM NaCl, 10 mM β-mercaptoethanol, 0.1 mM EGTA, 0.02% (w/v) NP-40, 0.2 mM phenylmethylsulphonyl fluoride (PMSF), and 10% (v/v) glycerol).” left out

T5 sequence (P40763 136-705 C468A): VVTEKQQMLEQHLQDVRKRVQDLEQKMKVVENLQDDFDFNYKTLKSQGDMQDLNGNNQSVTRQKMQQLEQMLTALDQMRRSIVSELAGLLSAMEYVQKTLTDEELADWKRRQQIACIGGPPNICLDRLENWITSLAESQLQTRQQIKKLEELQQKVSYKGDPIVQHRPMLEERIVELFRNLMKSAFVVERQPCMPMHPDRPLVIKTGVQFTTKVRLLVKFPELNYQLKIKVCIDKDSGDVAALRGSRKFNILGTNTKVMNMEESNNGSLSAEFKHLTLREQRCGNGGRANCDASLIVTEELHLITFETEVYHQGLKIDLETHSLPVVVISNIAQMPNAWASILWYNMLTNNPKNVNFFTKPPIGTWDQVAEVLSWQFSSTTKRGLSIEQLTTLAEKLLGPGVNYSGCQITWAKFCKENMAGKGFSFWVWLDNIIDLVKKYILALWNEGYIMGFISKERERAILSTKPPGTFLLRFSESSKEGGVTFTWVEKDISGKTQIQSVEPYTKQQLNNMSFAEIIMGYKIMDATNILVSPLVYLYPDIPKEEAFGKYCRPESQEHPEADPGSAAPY
T3 sequence (P40763 136-705 C687A): as the sequence (P40763 136-705 C468A) above, with A333C, C552A counted along it
T1 sequence (P40763 whole entry C712A): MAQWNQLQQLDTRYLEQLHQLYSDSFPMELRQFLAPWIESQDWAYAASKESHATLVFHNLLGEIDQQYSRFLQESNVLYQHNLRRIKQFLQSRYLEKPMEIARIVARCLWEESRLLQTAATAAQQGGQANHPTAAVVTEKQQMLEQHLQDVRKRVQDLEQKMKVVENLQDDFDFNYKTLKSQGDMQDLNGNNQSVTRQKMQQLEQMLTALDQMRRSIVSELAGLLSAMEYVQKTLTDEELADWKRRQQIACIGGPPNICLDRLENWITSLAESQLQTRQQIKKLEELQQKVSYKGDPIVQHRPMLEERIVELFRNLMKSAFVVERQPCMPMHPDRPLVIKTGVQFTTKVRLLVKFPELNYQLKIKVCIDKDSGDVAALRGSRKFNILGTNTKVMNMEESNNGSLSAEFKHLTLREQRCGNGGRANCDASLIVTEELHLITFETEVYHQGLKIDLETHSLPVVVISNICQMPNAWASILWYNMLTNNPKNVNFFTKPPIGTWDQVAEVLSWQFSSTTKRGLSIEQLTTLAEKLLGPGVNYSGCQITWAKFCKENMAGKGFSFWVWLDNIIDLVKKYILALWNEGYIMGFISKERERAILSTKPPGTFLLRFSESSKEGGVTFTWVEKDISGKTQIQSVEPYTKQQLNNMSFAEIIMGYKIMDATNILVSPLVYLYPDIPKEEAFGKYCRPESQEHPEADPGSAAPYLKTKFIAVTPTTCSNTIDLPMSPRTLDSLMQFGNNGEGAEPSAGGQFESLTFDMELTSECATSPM
T2 sequence (P40763 136-705 C550A): as the sequence (P40763 136-705 C468A) above, with A333C, C415A counted along it
T4 sequence (P40763 136-705): as the sequence (P40763 136-705 C468A) above, with A333C counted along it
T6 sequence (P40763 136-705 C542A): as the sequence (P40763 136-705 C468A) above, with A333C, C407A counted along it

- % of control, STAT3 AlphaScreen (STAT3 Cys712A; [1] 1 μM): 113.4 % of control
- % of control, STAT3 AlphaScreen (STAT3 Cys712A; [1] 3 μM): 112.4 % of control
- % of control, STAT3 AlphaScreen (STAT3 Cys712A; [1] 10 μM): 110.5 % of control
- % of control, STAT3 AlphaScreen (STAT3 Cys712A; [1] 30 μM): 108.0 % of control
- IC50 (STAT3 Cys712A; mutated Cys712A): > 30 µM
- % of control, STAT3 AlphaScreen (STAT3 Cys550A; [1] 1 μM): 132.9 % of control
- % of control, STAT3 AlphaScreen (STAT3 Cys550A; [1] 3 μM): 136.0 % of control
- % of control, STAT3 AlphaScreen (STAT3 Cys550A; [1] 10 μM): 135.2 % of control
- % of control, STAT3 AlphaScreen (STAT3 Cys550A; [1] 30 μM): 124.7 % of control
- IC50 (STAT3 Cys550A; mutated Cys550A): > 30 µM
- % of control, STAT3 AlphaScreen (STAT3 Cys687A; [1] 1 μM): 93.3 % of control
- % of control, STAT3 AlphaScreen (STAT3 Cys687A; [1] 3 μM): 89.7 % of control
- % of control, STAT3 AlphaScreen (STAT3 Cys687A; [1] 10 μM): 78.3 % of control
- % of control, STAT3 AlphaScreen (STAT3 Cys687A; [1] 30 μM): 51.9 % of control
- IC50 (STAT3 Cys687A; mutated Cys687A): > 30 µM
- melting point: 148 °C
- inhibition at 30 µM (STAT3; 30 µM, n.a.: not active, read-out: STAT3 % Inhibition (30 µM)): 96.5 ± 1.1%
- IC50 (STAT3; STAT3 wild-type (WT), read-out: STAT3 inhibition: IC50): 15.8 µM
- inhibition at 30 µM (STAT3; Table 1, AlphaScreen-based assay at 30 µM, STAT3-SH2 domain, read-out: % Inhibition): 96.5%
- % of control, STAT3 AlphaScreen (STAT3; [1] 1 μM): 98.6 % of control
- % of control, STAT3 AlphaScreen (STAT3; [1] 3 μM): 94.1 % of control
- % of control, STAT3 AlphaScreen (STAT3; [1] 10 μM): 72.4 % of control
- % of control, STAT3 AlphaScreen (STAT3; [1] 30 μM): 18.4 % of control
- inhibition versus Grb2 (Grb2): 23%
- % of control, STAT3 AlphaScreen (STAT3 Cys468A; [1] 1 μM): 111.8 % of control
- % of control, STAT3 AlphaScreen (STAT3 Cys468A; [1] 3 μM): 108.3 % of control
- % of control, STAT3 AlphaScreen (STAT3 Cys468A; [1] 10 μM): 101.1 % of control
- % of control, STAT3 AlphaScreen (STAT3 Cys468A; [1] 30 μM): 79.7 % of control
- IC50 (STAT3 Cys468A; mutated Cys468A): > 30 µM
- % of control, STAT3 AlphaScreen (STAT3 Cys542A; [1] 1 μM): 102.5 % of control
- % of control, STAT3 AlphaScreen (STAT3 Cys542A; [1] 3 μM): 101.3 % of control
- % of control, STAT3 AlphaScreen (STAT3 Cys542A; [1] 10 μM): 98.1 % of control
- % of control, STAT3 AlphaScreen (STAT3 Cys542A; [1] 30 μM): 92.3 % of control
- IC50 (STAT3 Cys542A; mutated Cys542A): > 30 µM
- IC50 (STAT1): > 50 µM
Compound: Cc1cc2c(cc1C)NS(=O)(=O)N2 [Compound 1, 5,6-Dimethyl-1H,3H-2,1,3-benzothiadiazole-2,2-dioxide]
- pKa [1]: 6.88 ± 0.03
